Conditions: in vivo
From the text: An LD₅₀ could so far not be determined.

CC[C@H](C)[C@@H]1NC(=O)[C@H](CCCNC(=N)N)NC(=O)[C@H](CC(=O)O)NC(=O)[C@H](CCSC)NC(=O)[C@H](CCCNC(=N)N)NC(=O)CNC(=O)CNC(=O)[C@H](Cc2ccccc2)NC(=O)[C@@H](NC(=O)[C@H](CO)NC(=O)[C@H](CO)NC(=O)[C@H](CCCNC(=N)N)NC(=O)[C@H](CCCNC(=N)N)NC(=O)[C@H](CC(C)C)NC(=O)[C@@H](N)CO)CSSC[C@@H](C(=O)N[C@@H](CC(N)=O)C(=O)N[C@@H](CO)C(=O)N[C@@H](Cc2ccccc2)C(=O)N[C@@H](CCCNC(=N)N)C(=O)N[C@@H](Cc2ccc(O)cc2)C(=O)O)NC(=O)CNC(=O)[C@H](CC(C)C)NC(=O)CNC(=O)[C@H](CO)NC(=O)[C@H](CCC(N)=O)NC(=O)[C@H](C)NC(=O)CNC1=O [alpha-hANaP, alpha-human atrial natriuretic peptide]
side-effects to the heart and circulation system, to the bronchial system, to the liver and renal functions, to the gonads, and to the central nervous system: No serious side-effects

Reference: patent EP0182984B1, “Use of fully synthetic alpha-human atrial natriuretic peptide (alpha-hANap)” (PHARMA BISSENDORF PEPTIDE GMBH, priority 1984, dated 1992)
